How the values were obtained:
[1] = target: T1, Ba/F3-TPR-MET-D1228N cells (Homo sapiens, UniProt P08581, D1228N, cells depend on it); assay: CellTiter-Glo Cell Viability Assay, Ba/F3-TPR-MET-D1228N; format: cell-based; conditions: 72 hours
T1 construct: fused on or other part: P12270 (Nucleoprotein TPR)
Procedure, shortened: (§1)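 Ba/F3 cells carrying TPR-MET or TPR-MET-D1228N, 3000 per well, were exposed for 72 h at 37 °C to 9-point 3-fold compound dilutions at 0.1% DMSO. Viability was read as ATP by CellTiter-Glo 2.0 luminescence, and IC50 values came from curve fitting.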

[2] = target: T2, Ba/F3-TPR-MET cells (Homo sapiens, UniProt P08581); assay: CellTiter-Glo Cell Viability Assay, Ba/F3-TPR-MET; format: cell-based; conditions: 72 hours
T2 construct: fused on or other part: P12270 (Nucleoprotein TPR)
Procedure, shortened: as §1

[3] = target: T3, MET (Homo sapiens, UniProt P08581); assay: MET Mobility Shift Assay; conditions: biochemical assay IC50; 100 μM ATP, 60 minute kinase reaction
T3 construct: purchased Carna Biosciences 08-151
Procedure, shortened: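 Recombinant MET at 0.625 nM was pre-incubated 30 min at room temperature with 1.5 μM FLPeptide30 and 10 mM MgCl2 in HEPES buffer with DTT. The reaction was started with 100 μM ATP, ran 60 min, and was stopped with EDTA. Microfluidic mobility-shift % conversion gave IC50.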

[4] = target: T4, MET D1228N (Homo sapiens, UniProt P08581, D1228N); assay: MET D1228N Mobility Shift Assay; conditions: biochemical assay IC50; 100 μM ATP, 60 minute kinase reaction
T4 construct: purchased Signalchem M52-12IG
Procedure, shortened: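 Enzyme at 0.313 nM preincubated 30 min at room temperature with 1.5 μM FAM-labelled peptide and 10 mM MgCl2 in HEPES buffer with DTT; reaction started with 100 μM ATP, run 60 min, stopped with EDTA. Substrate/product separated by microfluidic mobility shift; IC50 from inhibition of % conversion.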

| IC50 [3] [nM] | IC50 [4] [nM] | Compound | EC50 [1] [nM] | EC50 [2] [nM] |
| --- | --- | --- | --- | --- |
| ≤ 100 | ≤ 100 | CNCCOc1ccc2c(Oc3c(F)cc(NC(=O)c4cnc(C)cc4OC4CC4)cc3F)ccnc2c1 [Example 115, 4-cyclopropoxy-N-(3,5-difluoro-4-((7-(2-(methylamino)ethoxy)quinolin-4-yl)oxy)phenyl)-6-methylpyridine-3-carboxamide] | ≤ 100 | ≤ 100 |
| ≤ 100 | ≤ 100 | CNCCOc1cc2nccc(Oc3c(F)cc(NC(=O)c4cnccc4OCCCF)cc3F)c2cc1OC [Example 58, N-[3,5-difluoro-4-({6-methoxy-7-[2-(methylamino)ethoxy]quinolin-4-yl}oxy)phenyl]-4-(3-fluoropropoxy)pyridine-3-carboxamide] | ≤ 100 | ≤ 100 |
| ≤ 100 | ≤ 100 | COc1cc2c(Oc3c(F)cc(NC(=O)c4cnccc4OC)cc3F)ccnc2cc1OCCCN1CCOCC1 [Example 30, N-(3,5-difluoro-4-((6-methoxy-7-(3-morpholinopropoxy)quinolin-4-yl)oxy)phenyl)-4-methoxypyridine-3-carboxamide] | ≤ 100 | ≤ 100 |
| ≤ 100 | ≤ 100 | COc1cc2c(Oc3cc(F)c(NC(=O)c4cnccc4OC)cc3F)ccnc2cc1OCCCN1CCOCC1 [Example 27, N-[2,5-difluoro-4-({6-methoxy-7-[3-(morpholin-4-yl)propoxy]quinolin-4-yl}oxy)phenyl]-4-methoxypyridine-3-carboxamide] | 100 to 1000 | 100 to 1000 |
| ≤ 100 | ≤ 100 | CNCCOc1cc2nccc(Oc3c(F)cc(NC(=O)c4cnccc4OCCO)cc3F)c2cc1OC [Example 63, N-[3,5-difluoro-4-({6-methoxy-7-[2-(methylamino)ethoxy]quinolin-4-yl}oxy)phenyl]-4-(2-hydroxyethoxy)pyridine-3-carboxamide] | 100 to 1000 | 100 to 1000 |
| ≤ 100 | ≤ 100 | COc1cc2c(Oc3c(F)cc(NC(=O)c4cnccc4OC4CC4)cc3F)ccnc2cc1OC[C@H](C)O [Example 98, 4-cyclopropoxy-N-[3,5-difluoro-4-({7-[(2S)-2-hydroxypropoxy]-6-methoxyquinolin-4-yl}oxy)phenyl]pyridine-3-carboxamide] | ≤ 100 | ≤ 100 |
| ≤ 100 | ≤ 100 | COc1cc(OC2CC2)c(C(=O)Nc2cc(F)c(Oc3ccnc4cc(OCCO)c(OC)cc34)c(F)c2)cn1 [Example 111, 4-cyclopropoxy-N-(3,5-difluoro-4-((7-(2-hydroxyethoxy)-6-methoxyquinolin-4-yl)oxy)phenyl)-6-methoxypyridine-3-carboxamide] | ≤ 100 | ≤ 100 |
| ≤ 100 | ≤ 100 | CCOc1ccncc1C(=O)Nc1cc(F)c(Oc2ccnc3cc(OCCNC)c(OC)cc23)c(F)c1 [Example 5, N-(3,5-difluoro-4-((6-methoxy-7-(2-(methylamino)ethoxy)quinolin-4-yl)oxy)phenyl)-4-ethoxypyridine-3-carboxamide] | ≤ 100 | ≤ 100 |
| ≤ 100 | ≤ 100 | CCOc1ccncc1C(=O)Nc1cc(F)c(Oc2ccnc3cc(OCCCN(C)C)c(OC)cc23)cc1F [Example 23, N-(4-((7-(3-(dimethylamino)propoxy)-6-methoxyquinolin-4-yl)oxy)-2,5-difluorophenyl)-4-ethoxypyridine-3-carboxamide] | ≤ 100 | 100 to 1000 |
| ≤ 100 | ≤ 100 | COCCOc1cnc2c(Oc3c(F)cc(NC(=O)c4cnccc4OC)cc3F)ccnc2c1 [Example 139, N-(3,5-difluoro-4-((7-(2-methoxyethoxy)-1,5-naphthyridin-4-yl)oxy)phenyl)-4-methoxypyridine-3-carboxamide] | ≤ 100 | ≤ 100 |
| ≤ 100 | ≤ 100 | COc1cc2c(Oc3c(F)cc(NC(=O)c4nnccc4OC4CC4)cc3F)ccnc2cc1OCCO [Example 148, 4-cyclopropoxy-N-(3,5-difluoro-4-((7-(2-hydroxyethoxy)-6-methoxyquinolin-4-yl)oxy)phenyl)pyridazine-3-carboxamide] | ≤ 100 | ≤ 100 |
| ≤ 100 | ≤ 100 | CNCCOc1cc2nccc(Oc3c(F)cc(NC(=O)c4cnccc4OC)cc3Cl)c2cc1OC [Example 6, N-(3-chloro-5-fluoro-4-((6-methoxy-7-(2-(methylamino)ethoxy)quinolin-4-yl)oxy)phenyl)-4-methoxypyridine-3-carboxamide] | 100 to 1000 | 100 to 1000 |
| ≤ 100 | ≤ 100 | COCCOc1cc2nccc(Oc3c(F)cc(NC(=O)c4cnccc4OC4CC4)cc3F)c2cc1OC [Example 106, 4-cyclopropoxy-N-(3,5-difluoro-4-{[6-methoxy-7-(2-methoxyethoxy)quinolin-4-yl]oxy}phenyl)pyridine-3-carboxamide] | ≤ 100 | ≤ 100 |
| ≤ 100 | ≤ 100 | COc1cc2nccc(Oc3c(F)cc(NC(=O)c4c(OCC(F)F)ccnc4F)cc3F)c2cc1OCCO [Example 142, N-(3,5-difluoro-4-((6-(2-hydroxyethoxy)-7-methoxyquinolin-4-yl)oxy)phenyl)-4-(2,2-difluoroethoxy)-2-fluoropyridine-3-carboxamide] | ≤ 100 | ≤ 100 |
| ≤ 100 | ≤ 100 | (R)-N-(4-((7-(2-aminopropoxy)quinolin-4-yl)oxy)-3,5-difluorophenyl)-4-cyclopropoxypyridine-3-carboxamide [Example 13] | ≤ 100 | 100 to 1000 |
| ≤ 100 | ≤ 100 | CNCCOc1cc2nccc(Oc3c(F)cc(NC(=O)c4cnc(F)cc4OC)cc3F)c2cc1OC [Example 44, N-(3,5-difluoro-4-((6-methoxy-7-(2-(methylamino)ethoxy)quinolin-4-yl)oxy)phenyl)-6-fluoro-4-methoxypyridine-3-carboxamide] | 100 to 1000 | 100 to 1000 |
| ≤ 100 | ≤ 100 | COC[C@H](C)Oc1cc2c(Oc3c(F)cc(NC(=O)c4cnccc4OC)cc3F)ccnc2cc1OC [Example 128, (S)-N-(3,5-difluoro-4-((7-methoxy-6-((1-methoxypropan-2-yl)oxy)quinolin-4-yl)oxy)phenyl)-4-methoxynicotinamide] | ≤ 100 | ≤ 100 |
| ≤ 100 | ≤ 100 | CNCCOc1cc2ncnc(Oc3c(F)cc(NC(=O)c4cnccc4OC)cc3F)c2cc1OC [Example 8, N-(3,5-difluoro-4-((6-methoxy-7-(2-(methylamino)ethoxy)quinazolin-4-yl)oxy)phenyl)-4-methoxypyridine-3-carboxamide] | 100 to 1000 | 100 to 1000 |
| ≤ 100 | ≤ 100 | CCOc1ccnc(F)c1C(=O)Nc1cc(F)c(Oc2ccnc3cc(OCCCNC)c(OC)cc23)c(F)c1 [Example 119] | 100 to 1000 | 100 to 1000 |
| ≤ 100 | ≤ 100 | CNCCCOc1cc2nccc(Oc3c(F)cc(NC(=O)c4cnccc4OC4COC4)cc3F)c2cc1OC [Example 86, N-(3,5-difluoro-4-((6-methoxy-7-(3-(methylamino)propoxy)quinolin-4-yl)oxy)phenyl)-4-(oxetan-3-yloxy)pyridine-3-carboxamide] | 100 to 1000 | 100 to 1000 |
| ≤ 100 | ≤ 100 | CC(C)(O)COc1ccc2c(Oc3c(F)cc(NC(=O)c4cnccc4OC4CC4)cc3F)ccnc2c1 [Example 104, 4-cyclopropoxy-N-(3,5-difluoro-4-{[7-(2-hydroxy-2-methylpropoxy)quinolin-4-yl]oxy}phenyl)pyridine-3-carboxamide] | 100 to 1000 | 1000 to 10000 |
| ≤ 100 | ≤ 100 | COc1cc2nccc(Oc3c(F)cc(NC(=O)c4cnccc4OCCO)cc3F)c2cc1OC [Example 95, N-{4-[(6,7-dimethoxyquinolin-4-yl)oxy]-3,5-difluorophenyl}-4-(2-hydroxyethoxy)pyridine-3-carboxamide] | 100 to 1000 | 100 to 1000 |
| ≤ 100 | ≤ 100 | CNCCOc1cc2nccc(Oc3c(F)cc(NC(=O)c4cccnc4OC4CC4)cc3F)c2cc1OC [Example 78, 2-cyclopropoxy-N-[3,5-difluoro-4-({6-methoxy-7-[2-(methylamino)ethoxy]quinolin-4-yl}oxy)phenyl]pyridine-3-carboxamide] | 100 to 1000 | 100 to 1000 |
| ≤ 100 | ≤ 100 | CNCCOc1cc2nccc(Oc3c(F)cc(NC(=O)c4cnccc4OC[C@H](C)F)cc3F)c2cc1OC [Example 62, N-[3,5-difluoro-4-({6-methoxy-7-[2-(methylamino)ethoxy]quinolin-4-yl}oxy)phenyl]-4-[(2S)-2-fluoropropoxy]pyridine-3-carboxamide] | ≤ 100 | ≤ 100 |

— patent publication US11753395B2 (Kinnate Biopharma Inc., priority 2021, dated 2023)
